Calls of active or inactive are those of the source.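 The calls were made as follows: active = compounds giving half or more protection of infected cells from virus-caused growth loss, again on retest; inactive = the rest.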 Where a SMILES comes first, the peptide text is derived from it. The star is where a group is joined. Myristoyl = CCCCCCCCCCCCCC(=O)*
Tested on: CEM cells HIV-1 protection, formazan growth assay
Test: NCI AIDS Antiviral Assay
Conditions: for IC50: measured here: growth of uninfected CEM cells
How it was run: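 Human CEM cells, uninfected and HIV-1-infected, received five drug concentrations, and growth was read by soluble formazan assay. Compounds giving at least 50% protection were retested; reproducible 100% protection defined confirmed active.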

Compound	EC50 [µM]	IC50 [µM]	outcome
CCCCOP(=O)(/N=C/OC(C)C)OCCCC	> 200	> 200	
NC(=O)CC[C@@H]1NC[C@H](C(O)C(O)C(O)CO)OC1=O (some centres not stated)	> 851	> 851	
CC(=O)C(N)=Nc1ccccc1	> 1550	> 1550	
O=C(O)CCNCCCCNCCC(=O)O	> 813	> 813	
CCCCCCCCCCCCCCC(C(=O)O)S(=O)(=O)O (configuration not stated)	> 200	155	
COc1c(-c2ccc3c(c2)OCO3)oc2cc3c(c(OC)c2c1=O)OCO3	> 200	> 200	
CC1=C/C(=N\NC(N)=S)C(C(O)(C(F)(F)F)C(F)(F)F)C(C)(C)C1 (configuration not stated)	> 200	89.1	
c1scc2c1COCCOCCOCCOCCOCCOCCOC2	> 646	> 646	
O=C(c1ccccc1)n1c(Cc2ccccc2)nc2cc(C34CC5CC(CC(C5)C3)C4)ccc21	> 100	16.6	
CC(C)(C)c1cc(CCC(=O)Nc2ccc(Cl)cc2Cl)nc(N)n1	> 135	> 135	
O=P1(O)c2ccccc2-c2ccccc21	> 200	> 200	
CC12CCC(C(=O)n3c1nc1ccccc13)C(C)(C)O2 (configuration not stated)	> 200	> 200	
N#Cc1c(Cl)cc(C#N)n2c1nc1ccccc12	> 20	0.363	
COC(=O)C1=NN2c3ccccc3C(=O)OCCC2(C)C1 (configuration not stated)	> 200	> 200	
O=C(c1ccc(Cl)cc1Cl)N(C(=O)N1CCC(c2ccccc2)CC1)c1ccccc1	> 200	> 200	
CCCCCCCCCCCCCC(=O)NCC(=O)NC(CC(N)=O)C(=O)NC(C)C(=O)NC(C)C(=O)NC(C)C(=O)NC(C)C(=O)NC(CCCCN)C(=O)NC(CCCCN)C(=O)NCC(=O)NC(Cc1ccc(O)cc1)C(N)=O (configuration not stated) (Myristoyl-GNAAAAKKGY-NH2; configuration not given here)	> 214	> 214	
COC1CC(COCc2ccccc2)CC(OC)O1 (configuration not stated)	> 200	66.1	
O=c1[nH]c(=O)n(C2CC(F)(F)C(CO)O2)cc1COCC(F)(F)F (configuration not stated)	> 174	> 174	
Cc1cccc(-c2nc(-c3cnccn3)n(Cc3ccccc3)n2)c1	> 200	> 200	
CC1(C)CCc2cc3c(cc2O1)OC(C)(C)C1c2cc(O)c(OCc4ccccc4)cc2OC31 (configuration not stated)	> 200	61.7	
Nc1ccccc1C(=O)NNC(=O)c1ccccc1N	> 200	> 200	
CCCCCCCCCC(=O)OC1CN2CC[C@H](O)C2C(O)[C@@H]1O (some centres not stated)			inactive

Compound	EC50 [µM]	IC50 [µM]	outcome
O=C(/C=C\c1ccc(Cl)cc1Cl)c1cccs1	> 200	32.4	
CC(C)(C)c1cc(C(=O)[O-])c([OH2+])c(C(C)(C)C)c1.CC(C)(C)c1cc(C(=O)[O-])c([OH2+])c(C(C)(C)C)c1.[Mn+2]	> 85.1	33.9	
O=C1NCC(c2ccccc2)(c2ccccc2)O1	> 200	151	
O=Cc1cc(C(=O)OCc2ccccc2)n(S(=O)(=O)c2ccccc2)c1	> 200	17.4	
O=c1[nH]c(Nc2cccc(CO)c2)nc2nc[nH]c12	> 200	> 200	
O=C(Nc1cc2c(=O)[nH]c3ccccc3c2oc1=O)c1cnccn1	> 100	> 100	
CCCCCCCCCCCCCCCCCCNc1nc(=O)n(C2CC(O)C(COP(=O)(O)OCC3OC(n4cc(C)c(=O)[nH]c4=O)CC3N=[N+]=[N-])O2)cc1F (configuration not stated)	0.759	3.63	
C=C1CC(Cn2cc(Br)c(=O)[nH]c2=O)(c2ccc(-c3ccccc3)cc2)OC1=O (configuration not stated)	> 20	0.457	
Oc1cc2ccc3c(c2cc1O)CCc1cn[nH]c1-3	> 10.7	> 10.7	
Cn1cc(C(=O)c2ccccc2)cc(C(=O)c2ccccc2)c1=O			inactive
CCn1c2ccc(C(=O)CCCN(C)C)cc2c2cc(C(=O)CCCN(C)C)ccc21	> 380	0.123	
C=CCN(c1cc(OC)c2[nH]c(C(=O)O)c(C)c2c1[N+](=O)[O-])S(C)(=O)=O	> 200	> 200	
CCOP(=O)(OCC)c1cc(-c2ccccc2)ccc1N	> 200	> 200	
Cc1ccc2nc(N/N=C/c3ccc(C)s3)cc(C)c2c1	> 200	14.5	
COC[C@@]12CCC(OC)C34[C@@H]5C[C@@]6(O)C(OC(=O)c7ccccc7)[C@@H]5[C@@]5(O[C@@H]5[C@@H]6OC)[C@@H](C(OC)[C@@H]31)[C@@H]4N(C)C2 (some centres not stated)			inactive
CCN(CC)CCC(=O)c1ccc(Sc2ccc(F)cc2)cc1			inactive
Oc1ccccc1-c1nnc2n1N=C(c1ccc(-c3ccccc3)cc1)CS2	> 200	15.5	
CC(C)c1ccc(/C(C(=O)O)=C(\O)C(=O)O)cc1	> 200	107	
N#C/C(=C\c1ccc(Cl)cc1)c1nc(-c2cc3ccccc3oc2=O)cs1	> 151	> 151	
COc1c(O)c2c(c(O)c1C(C)C)C(=O)C(O)=C1C(C)(C)CCC[C@@]12C	> 120	16.2	
CC(C)CCCC(C)C1CCC2[C@@H]3CCC4C[C@@H](CCC=C(c5cc(Br)c(O)c(C(=O)O)c5)c5cc(Br)c(O)c(C(=O)O)c5)CC[C@]4(C)C3CC[C@]12C (some centres not stated)	20.9	282	
O=C1C2[C@@H](C(=O)N1c1ccc(Br)cc1)C13C(=CC2([N+](=O)[O-])[C@@H]2C(=O)N(c4ccc(Br)cc4)C(=O)[C@@H]21)c1ccccc1N3c1ccccc1 (some centres not stated)	> 6.76	> 6.76	

Compound	EC50 [µM]	IC50 [µM]	outcome
CCCCCCCCCCCCSS(=O)(=O)c1ccc(C)cc1	> 20.4	13.8	
COc1cc(CSc2ccc(O)cc2)cc(OC)c1OC	> 200	33.1	
COC(=O)CCSC(=O)Nc1ccccc1Cl			inactive
O=C(O)c1c[nH]cc1C(=O)O			inactive
S=C(Nc1cccc2ccccc12)NN1CCCCCC1	> 17.4	> 17.4	
CC(=O)/C(=C/n1c(=S)sc2ccccc21)C(=O)Nc1ccc([N+](=O)[O-])cc1	> 129	95.5	
CCO[C@H]1CC(C)C2[C@H](CC3(C)C4CC(OC(C)=O)C5C(C)(C)[C@@H](OC6OCC(O)C(O)C6O)CC[C@@]56C[C@@]46CC[C@]23C)O1 (some centres not stated)	> 41.7	> 41.7	
CC1=NN(c2ccccc2)C(=O)C1N=Nc1ccc(Br)cc1C (configuration not stated)	> 17.4	> 17.4	
Cc1ccc(S(=O)(=O)/C(C#N)=C/NC(=S)Nc2cc(Cl)ccc2Cl)cc1			inactive
Oc1cc(O)c2c(-c3c(O)c(-c4ccc(O)c(O)c4)[o+]c4cc(O)cc(O)c34)c(O)c(-c3ccc(O)c(O)c3)[o+]c2c1			inactive
O=C(Nc1nc2ncn(CC(COc3ccccc3)OC(=O)c3ccccc3)c2c(=O)[nH]1)c1ccccc1 (configuration not stated)	> 70.8	> 70.8	
CCOC(=O)/C(=C/c1cccc(Cl)c1)N(CC)CC	> 91.2	> 91.2	
O=C1C(=Cc2ccc(F)cc2)C(=O)c2ccccc21	> 10.7	> 10.7	
CN1CC[C@@H](c2ccccc2)[C@@H](O)C1			inactive
CC(/C=C/c1ccccc1Cl)=N\C(=S)NC(N)=S	> 200	20.9	
CN(C)c1ccc(C=C2C(=O)NC(=O)NC2=O)cc1	> 28.2	> 28.2	
COc1cc2c(c([N+](=O)[O-])c1)NC(=O)C(c1ccccc1)S2 (configuration not stated)	> 200	110	
O=C(/C=C/c1ccccc1O)c1cccc2ccccc12	93.3	95.5	
CCOC(=O)c1cc(/C=C/C(C)=C/C(=O)OC)n(C)c1C	> 24.5	> 24.5	
CCC1OC2C(CC=C(C)C)=C3OC(C)(O)C(C)(CC)C(=O)C3=C3OC(=O)C=C1C32 (configuration not stated)	> 200	33.1	
C[N+]12C(=O)CC3OCC=C4C[N+]5(C)CCC6(c7ccccc71)C2C3C4CC65O (configuration not stated)	> 398	224	
CCOc1ccc(Nc2nc(C)c(C(=O)CC(=O)C(=O)Nc3ccc(C(C)C)cc3C(C)C)s2)cc1	> 200	105	

Compound	EC50 [µM]	IC50 [µM]	outcome
CCCCN=NNc1cn(C2OC(CO)C(O)C2O)c(=O)[nH]c1=O (configuration not stated)	> 200	> 200	
CC1CCc2c(c(CC3CC(=O)NC(=O)C3)nn2-c2ccccc2)C1 (configuration not stated)	> 200	> 200	
Oc1cccc2c(Cl)ccnc12	> 20	1.58	
CC(C)(C)C1COP(=O)(OCc2ccccc2)OC1 (configuration not stated)	> 631	> 631	
O=C(O)C1CC(C2CCCCN2)CN2CCCCC12 (configuration not stated)	> 200	> 200	
Cc1cc(Cl)ccc1N1C(=O)C(=O)C(c2nc3ccccc3s2)C(=O)C1=O	> 91.2	> 91.2	
COc1cc2c([C@@H](OC(=O)c3ccccc3)c3ccc4c(c3)OCO4)nccc2c(OC)c1OC			inactive
COc1cc2nncc(Cl)c2cc1OC	> 95.5	79.4	
COc1cc(O)c2c(c1)O[C@H](C)C(C)C2=O (some centres not stated)	> 200	> 200	
Cc1ccc(NC(=O)CCC(CC(=O)C(C)(C)C)=NNC(=O)C(=O)NN)cc1C	> 3.63	2.57	
CCOC(=O)c1nc2ccc(C(F)(F)F)cc2nc1NCc1ccc(OC)cc1	> 200	38	
c1ccc2c(-c3csc(-c4c[nH]c5ccccc45)n3)c[nH]c2c1	> 200	56.2	
N[C@H](C(=O)O)[C@@H](Cl)CC(=O)O			inactive
CN(C)c1nc(=Nc2cccc(Cl)c2)ss1			inactive
COC(=O)C1(C)CCCC2(C)C1CCC1(O)C(O)C(C(C)C)=CCC21 (configuration not stated)	> 200	56.2	
COc1cc2cc(C(=O)N3CC(CCl)c4ccc(NCCN)cc43)[nH]c2c(OC)c1OC (configuration not stated)	> 2	0.813	
COc1ccc(C(=O)N2CCN(c3ccc4c(c3)OCC(=O)N4)CC2)cc1OC	> 200	> 200	
COC1[C@H](NC(=O)OC(C)(C)C)C(=O)N1Cc1ccccc1 (some centres not stated)			inactive
CCC1NC(N=Nc2ccc([N+](=O)[O-])cc2)(P(=O)(OC(C)C)OC(C)C)OC1=O (configuration not stated)	> 219	> 219	
